Measurements published in patent US6872738B1, “Product comprising at least a no synthase inhibiting substance associated with at least a phospholipase a2 inhibiting substance” (Societe de Conseils de Recherches et D'Applications …, priority 1999, dated 2005).
“And” between values parts separate entries of the source, which are not always exact repeats. Equal entries are not always repeated.

Legend:
Assay in all cases: carrageenan-induced rat's paw edema
Assay type in all cases: in vivo, Male Sprague Dawley rats
[1] = system: carrageenan-induced rat's paw edema; design: key: IS: insignificant result; ***: highly significant result
Experimental: (§1) The activity of the compounds of the invention was evaluated in vivo on a model of carrageenan-induced rat's paw edema.
(§2) Male Sprague Dawley rats (Charles River) weighing 170 to 180 g on the day of the experiment are kept indoors for 5 to 8 days under animal husbandry conditions and are starved for 18 hours on a mesh floor before and during the experiment. The groups are constituted by 8 animals. The products are administered by intraperitoneal route (ip, 2 ml/kg), 30 minutes before the 1% Carrageenan is injected into the sole of the rats' rear right paw. The volume of the paw corresponding to the edema is measured using a water plethysmometer (Ugo Basile, APELEX) before the injection of carrageenan (t0) and 3 hours after the injection. The volume of the paw allows determination of the % of inflammation ((volume of the paw at time t after carrageenan−volume of the same paw at time to before injection of the products/volume of the paw at time t0)×100). […] This effectiveness is determined statistically by a Student test.

[2] = system: carrageenan-induced rat's paw edema; conditions: for % inflammation: 30 minutes before 1% carrageenan, paw volume 3 hours after injection, 8 rats; for protection of the animal from the edema caused by carrageenan (in words): ip, doses of the groups of the respective example
Experimental: as §1, §2

[3] = system: carrageenan-induced rat's paw edema; design: key: IS: Insignificant result; *: significant result; conditions: Example 4; 30 mg/kg ip
Experimental: as §1, §2

SMILES | % inflammation ([2]; 30 mg/kg ip) | protection of the animal from the edema caused by carrageenan (in words) [2] | significance of % inflammation (Student test) [3] | other results
COc1cccc2c1cc([N+](=O)[O-])c1c(C(=O)O)cc3c(c12)OCO3 [aristolochic acid] | 68 ± 5.1% | inactive |  | significance of % inflammation (Student test) ([1]; Example 3, 30 mg/kg ip): IS
N=C(N)NN [aminoguanidine] |  | inactive |  | significance of % inflammation (Student test) ([1]; Example 2, 400 mg/kg ip): IS; significance of % inflammation (Student test) ([1]; Example 3, 400 mg/kg ip): IS; % inflammation ([2]; 400 mg/kg ip): 53.1 ± 3.4% and 60.7 ± 7.5%
CCN(CC)CCCC(C)Nc1c2ccc(Cl)cc2nc2ccc(OC)cc12 (stereo not drawn) [mepacrine] | 64.5 ± 3.7% and 53.9 ± 3.2% and 51.9 ± 2.7% | inactive | IS | significance of % inflammation (Student test) ([1]; Example 1, 30 mg/kg ip): IS; significance of % inflammation (Student test) ([1]; Example 2, 30 mg/kg ip): IS
CN(Cc1nc(-c2cc(C(C)(C)C)c(O)c(C(C)(C)C)c2)cs1)c1ccc(NC(=N)c2cccs2)cc1.Cl [4-[3,5-bis(1,1-dimethylethyl)-4-hydroxyphenyl]-N-{4-[(imino(2-thienyl)methyl)amino]phenyl}-N-methyl-2-thiazolemethanamine hydrochloride] | 52.8 ± 4.0% | inactive | IS | 
O=[N+]([O-])c1cccc2cn[nH]c12 [7-nitroindazole] |  | inactive |  | significance of % inflammation (Student test) ([1]; Example 1, 25 mg/kg ip): IS; % inflammation ([2]; 25 mg/kg ip): 72.5 ± 16.1%
